From paper PMC11004567 (Heliyon, 2024)
Values after ≈ are worked out from the molar mass of the structure shown. Where two headings read alike, the source gives them in different places.

Columns and labels:
[1] = tested on: MRSA2, methicillin-resistant S. aureus clinical isolate SA 630; test: In vitro antibacterial evaluation, broth dilution micro-method MIC; format: cell-based; conditions: Staphylococcus aureus, MRSA, read-out: MIC MRSA2
E. faecalis ATCC 29213 = test: In vitro anti-enterococcal MIC, broth dilution micro-method; format: cell-based; conditions: Enterococcus faecalis, ATCC29213, 24 h, read-out: MIC E. faecalis ATCC 29213
[2] = tested on: MRSA3, methicillin-resistant S. aureus clinical isolate 63718; test: In vitro antibacterial evaluation, broth dilution micro-method MIC; format: cell-based; conditions: Staphylococcus aureus, read-out: MIC MRSA3
[3] = tested on: VRE 342B, vancomycin-resistant E. faecalis; test: In vitro anti-enterococcal MIC, broth dilution micro-method; format: cell-based, Enterococcus faecalis; conditions: 24 h, read-out: MIC VRE 342B
[4] = tested on: Staphylococcus aureus ATCC 29213; test: In vitro antibacterial evaluation, broth dilution micro-method MIC; format: cell-based
S. aureus ATCC 29213 [5] = test: MTT assay, inhibition of respiratory activity; format: cell-based, Staphylococcus aureus; conditions: at 16 × MIC
[6] = tested on: VRE 725 B, vancomycin-resistant E. faecalis; test: In vitro anti-enterococcal MIC, broth dilution micro-method; format: cell-based, Enterococcus faecalis; conditions: 24 h, read-out: MIC VRE 725 B
[7] = tested on: MRSA1, methicillin-resistant S. aureus clinical isolate SA 3202; test: In vitro antibacterial evaluation, broth dilution micro-method MIC; format: cell-based; conditions: Staphylococcus aureus, MRSA, read-out: MIC MRSA1
[8] = tested on: VRE 368, vancomycin-resistant E. faecalis; test: In vitro anti-enterococcal MIC, broth dilution micro-method; format: cell-based, Enterococcus faecalis; conditions: 24 h, read-out: MIC VRE 368
[9] = Lipophilicity log k by RP-HPLC; format: physicochemical; conditions: logarithm of capacity factor, experimentally determined by RP-HPLC
[10] = tested on: human monocytic leukemia cell line THP-1; test: In vitro cell viability analysis; format: cell-based; conditions: read-out: IC50 THP-1
[11] = tested on: non-cancer human renal proximal tubule epithelial TH-1 cells; conditions: read-out: IC50 TH-1; cytotoxicity, non-cancer renal TH-1 cells; cited from earlier work
M. kansasii DSM 44162 = test: In vitro antimycobacterial evaluation, broth dilution micro-method; format: cell-based; conditions: Mycobacterium kansasii, DSM44162, read-out: MIC M. kansasii DSM 44162
[12] = tested on: breast cancer MCF-7 cells; conditions: through creation of ROS, disruption of mitochondrial membrane potential; cited from earlier work
[13] = tested on: mature S. aureus ATCC 29213 biofilm; test: Biofilm disruption / eradication of mature biofilm; format: cell-based, Staphylococcus aureus
S. aureus ATCC 29213 [14] = test: Dynamics of antibacterial effect; format: cell-based, Staphylococcus aureus; conditions: time-kill curves, 1×, 2× (SB3–Cu also 4×) MIC, up to 24 h
[15] = ATCC29213, 24 h, read-out: MIC SA

Structure (SMILES)	MIC ([1]; 24 h) [µg/mL]	MIC [1] [µM]	MIC (E. faecalis ATCC 29213) [µg/mL]	MIC ([2]; 24 h) [µg/mL]	MIC [2] [µM]	MIC [3] [µg/mL]	MIC [4, 15] [µg/mL]	MIC ([4]; ATCC29213, read-out: MIC SA) [µM]	MIC [6] [µg/mL]	MIC ([7]; 24 h) [µg/mL]	MIC [7] [µM]	MIC [8] [µg/mL]	log k [9]	IC50 ([10]; Homo sapiens, THP-1, 24 h) [µM]	IC50 [11] [µM]	further results
CC1(C)S[C@@H]2[C@H](NC(=O)[C@H](N)c3ccccc3)C(=O)N2[C@H]1C(=O)O [AMP, ampicillin, reference compound]	> 16	> 45.8	1 (≈ 2.86 µM)	16	45.8	4 (≈ 11.4 µM)	2	5.7	4 (≈ 11.4 µM)	> 16	> 45.8	4 (≈ 11.4 µM)				S. aureus Respiration Inhibition (S. aureus ATCC 29213 [5]): 81.9%
COc1cccc(/C=N/N2C(=O)c3ccccc3NC2c2cccc(OC)c2O)c1O (stereo not shown) [SB8, 3-[(E)-(2-hydroxy-3-methoxybenzylidene)amino]-2-(2-hydroxy-3-methoxyphenyl)-2,3-dihydroquinazolin-4(1H)-one]	> 256		> 256	> 256		> 256	> 256		> 256	> 256		> 256	0.1689	> 50	> 1000	
NNC(=O)c1ccncc1 [INH, isoniazid]																MIC (M. kansasii DSM 44162): 29.1 µM (≈ 3.99 µg/mL)
O=C1c2ccccc2NC(c2cc([N+](=O)[O-])ccc2O)N1/N=C/c1cc([N+](=O)[O-])ccc1O (stereo not shown) [SB3, 3-[(E)-(2-hydroxy-5-nitrobenzylidene)amino]-2-(2-hydroxy-5-nitrophenyl)-2,3-dihydroquinazolin-4(1H)-one]	16	35.6	256 (≈ 570 µM)	64	141	> 256	32	71.2	> 256	64	141	> 256	0.6022	12.7 ± 1.2	432	Apoptosis of MCF-7 cells [12]: induces apoptosis; Reduction of biofilm viability ([13]; at 0.5 × MIC): no effect; Eradication activity on mature biofilm ([13]; at 1 × MIC): 81.7 ± 13.7%; Concentration eradicating 80% of S. aureus biofilm ([13]; mature biofilm, 24 h treatment): 1 × MIC; Mode of antibacterial action (bactericidal vs bacteriostatic) (S. aureus ATCC 29213 [14]): only bacteriostatically
N.N.[Cl][Pt][Cl] [CPT, cisplatin, reference compound]																IC50 ([10]; cell viability, CCK-8, 24 h, ± SD, n = 6): 16.1 ± 1.3 µM
